95 molecules from PubChem BioAssay AID624254 (Broad Institute, 2012) can be followed below.

As usually defined, the AC50 is the concentration giving half of the maximal activity seen.

The source made the active and inactive calls. How the calls were made is not given here.

Target in the first assay: not listed separately
The assay is described as follows: Luciferase light induction in v cholerae bh1651, agonist dose response, confirmatory (AID 624254). To be noted: V. cholerae BH1651 luxOD47E, luciferase light induction, 6 h; at 50 µM (top of the series).
In the case of `COc1ccc(CC(=O)N2CCC(Nc3nc4ccccc4n3Cc3ccc(F)cc3)CC2)cc1`, the “activation (light increase)” value is “inactive”. Same read-out and setting: the value for `COc1ccc(Cc2nn[nH]n2)cc1` was “inactive”; that for `O=C(CNc1cc(S(=O)(=O)N2CCOCC2)ccc1N1CCCC1)Nc1ccc(Cl)cc1` was “inactive”.

For the molecule `CCN(CC(=O)Nc1c(F)cccc1F)C(=O)c1ccc(C)c(S(=O)(=O)N2CCCCC2)c1`, the “activation (light increase)” value was “inactive”. With `O=C(NCc1ccccn1)c1c(O)c2c([nH]c1=O)CCCC2`, the “activation (light increase)” value is “inactive”. Same read-out and setting: the value for `COc1ccc(-c2cc(CCCC(=O)NCCc3cc(OC)ccc3OC)no2)cc1` was “inactive”; that for `Cc1ccccc1-n1nnnc1-c1ccccc1` was “inactive”. On to `CC(=O)c1ccc(S(=O)(=O)Nc2cccc(-c3ccc4nncn4n3)c2)cc1`, for which the “activation (light increase)” value was “inactive”. Still for that read-out and setting: the value for `O=C(COC(=O)c1ccc(Br)cc1)NC1CCCC1` was “inactive”; that for `Cn1cnc(S(=O)(=O)Nc2ccccc2Cl)c1` was “inactive”; that for `Cc1ccc(S(=O)(=O)N(C)c2nonc2C)cc1` was “inactive”. Same read-out and setting: the value for `Cc1ccc(C(=O)OCC(=O)NC2CCCC2)cc1` was “inactive”; that for `Cc1cc(C(=O)OCC(=O)Nc2c(Cl)cccc2C(F)(F)F)c(C)o1` was “inactive”; that for `Cc1cc(C)c(S(C)(=O)=O)c(Oc2ccc(C(C)(C)C)cc2)n1` was “inactive”. The same measure, in the same setting: the entry for `O=c1[nH]c2ccccc2n1Cc1ccc(Cl)cc1` is “inactive”; for `C=Cn1c(C(=O)O)ccc1-c1ccccc1` it is “inactive”; for `Cc1noc(C)c1NC(=O)Nc1cccc2c1O[C@H](CN(C)S(=O)(=O)c1cccs1)[C@@H](C)CN([C@H](C)CO)C2=O` it is “inactive”. In the case of `Cc1ccc(CN(Cc2cc3cc(C)ccc3[nH]c2=O)C(=O)N2CCOCC2)cc1`, the “activation (light increase)” value was “inactive”.

As for `O=C(Nc1ccc(S(=O)(=O)Nc2ncccn2)cc1)C1CC(=O)N(c2ccccc2)C1` (stereo not given), the “activation (light increase)” value is “inactive”.

As to `O=[N+]([O-])c1ccc(S(=O)(=O)NCC(c2cccnc2)N2CCc3ccccc32)cc1` (stereo not given), the “activation (light increase)” value was “inactive”.

In the case of `Oc1ccc(-c2cn3c(n2)SCC3)cc1`, the “activation (light increase)” value was “inactive”.

As for `Cc1cccc(NS(=O)(=O)c2ccc(Oc3ccccc3)cc2)n1`, the “activation (light increase)” value is “inactive”.

In the case of `CC(C)c1ccc(OCC(=O)NC2CCCC2)cc1`, the “activation (light increase)” value is “inactive”. Same read-out and setting: the value for `Cc1ccc(S(=O)(=O)N2CCN(C(=O)COC(=O)/C=C/c3ccc(F)cc3)CC2)c(C)c1` was “inactive”; that for `CC(C)CCN1CC(C(=O)N2CCN(c3ccc(F)cc3)CC2)CC1=O` (stereo not given) was “inactive”; that for `Cc1ccc(C)c(S(=O)(=O)Nc2ccc(-n3cnnn3)cc2)c1` was “inactive”.

`COC(=O)c1cc(Br)ccc1OC(=O)c1cccnc1`: the “activation (light increase)” value was “inactive”. The same measure, in the same setting: the value for `CCOC(=O)Nc1ccc(S(=O)(=O)Nc2cc(C)nc(C)n2)cc1` was “inactive”. The same measure, in the same setting: the entry for `C[C@H](CO)N1C[C@H](C)[C@H](CN(C)S(=O)(=O)c2ccccc2)Oc2c(NC(=O)Nc3ccc4c(c3)OCO4)cccc2C1=O` is “inactive”; for `CCCc1cc(=O)[nH]c(Nc2ccc(N3CCCCC3)cc2)n1` it is “inactive”. Take `COc1ccc(S(=O)(=O)Nc2cccc(S(=O)(=O)N3CCCC3)c2)cc1OC`: the “activation (light increase)” value was “inactive”.

The target of another assay is V. cholerae BH1651 luxOD47E, luciferase light induction, 6 h. The description is as above.
Conditions: not given
Take `CC(=O)c1cccc(NC(=O)CSc2nc(=O)n(CCCN3CCOCC3)c3c2CCC3)c1`: the AC50 is 180 nM.

In the case of `CCOc1ccc(CCNC(=O)COC(=O)Cc2ccc(F)cc2)cc1OCC`, the AC50 was 95.3 nM.

As to `CCCCCc1c(C)nc(N2CCc3ccccc3C2)[nH]c1=O`, the AC50 is 295 nM.

Take `COc1ccc(N2CC(C(=O)Nc3cc(C(F)(F)F)ccc3N3CCCC3)CC2=O)c(OC)c1` (stereo not given): the AC50 is 1220 nM.

With `O=C(Nc1nccs1)C(NS(=O)(=O)c1ccc(Br)s1)c1ccccc1` (stereo not given), the AC50 is 15800 nM. Same read-out and setting: the value for `Cc1noc(C)c1C(=O)OCC(=O)c1c[nH]c2ccccc12` was > 50000 nM (inactive); that for `CC1CCCCC1NC(=O)COC(=O)c1ccccc1NC(=O)c1ccco1` (stereo not given) was 20000 nM; that for `O=C(CSc1nnc2ccccn12)c1ccc2c(c1)OCCO2` was 17000 nM.

Regarding `CCOC(=O)CSc1nc(N)c(C#N)c(-c2cccs2)c1C#N`, the AC50 was 11700 nM. Same read-out and setting: the value for `COc1cc(NC(=O)Nc2cccc(Cl)c2)c(OC)cc1NC(=O)CN1CCCCC1` was 522 nM; that for `C=CCn1c(NCc2ccccc2)nc2ccccc21` was 11700 nM; that for `Cc1cccc(-c2cc3nc4c(c(N5CCC6(CC5)OCCO6)n3n2)CCCC4)c1` was > 50000 nM (inactive). Still for that read-out and setting: the figure for `O=C(NC1CCCCC1)C(=O)c1c[nH]c2ccccc12` is less than 23.5 nM; for `CCc1cc(C(=O)c2ccccc2OC)c(N)s1` it is 802 nM; for `C=Cn1c(C(=O)O)ccc1-c1ccc(OC)cc1` it is less than 380 nM. As for `CCCCn1nnnc1NCc1ccc(N2CCCC2)cc1`, the AC50 is 38700 nM. For `COc1ccc(-c2noc(CCC(=O)N3CCN(c4cccc(C(F)(F)F)c4)CC3)n2)cc1`, the AC50 was 685 nM. Consider `O=[N+]([O-])c1ccc(N2CCOCC2)c2c1no[n+]2[O-]`, for which the AC50 was 1740 nM. On to `CC(=O)N1CCN(C(=O)COc2ccc(Br)cc2)CC1`, for which the AC50 is > 50000 nM (inactive). On to `O=C(O)c1cccc(Nc2ncnc3c2cnn3-c2ccccc2)c1`, for which the AC50 was > 50000 nM (inactive).

In the case of `O=C(Cn1cccc1C(=O)c1ccccc1)NCCN1CCCCCC1`, the AC50 is 25600 nM. For `CC(C)c1ccc(CNc2nnnn2C)cc1`, the AC50 was 101 nM. On the same count and under the same terms, the value for `COc1ccc(OCCOC(=O)CCS(=O)(=O)c2ccc(C)cc2)cc1` was 208 nM; that for `Cc1ccc(C)c(-n2c(Cc3cccs3)n[nH]c2=S)c1` was less than 23.5 nM; that for `COC(=O)C(C)N(c1ccc(C)cc1)S(=O)(=O)c1c(C)[nH]c(=O)[nH]c1=O` (stereo not given) was > 50000 nM (inactive). The same measure, in the same setting: the value for `Cc1nc2ncnn2c(C)c1Cc1c(Cl)cccc1Cl` was 1220 nM. Still for that read-out and setting: the value for `O=C(COC(=O)/C=C/c1ccccc1)NC1CCCC1` was > 50000 nM (inactive).

In the case of `Cc1ccc2cc3c(NC(=O)c4ccco4)nn(C)c3nc2c1`, the AC50 was less than 23.5 nM.

As for `CCCOc1ccc(-c2nc(OC)c3ccccc3n2)cc1`, the AC50 was 7010 nM. As for `COc1ccc(OC)c(S(=O)(=O)N2CCC(C(=O)N3CCc4ccccc4C3)CC2)c1`, the AC50 is 191 nM. As to `CCOCCCN1CC(C(=O)NCCc2ccc(C)cc2)CC1=O` (stereo not given), the AC50 was 185 nM. `COc1ccc(OCCOC(=O)c2cccs2)cc1`: the AC50 is 40300 nM. The same measure, in the same setting: the figure for `COc1ccccc1NC(=O)c1nn(-c2ccc(Cl)cc2)ccc1=O` is 377 nM; for `CCn1nc(NC(=O)c2ccco2)c2cc3ccccc3nc21` it is 2360 nM. Turning to `CCOC(=O)C1=C(C)N=C2SCCC(=O)N2C1c1cc(Br)ccc1OC` (stereo not given), the AC50 was 35.4 nM.

For `Cc1noc(C)c1NC(=O)Nc1cccc2c1O[C@@H](CN(C)S(=O)(=O)c1cccs1)[C@H](C)CN([C@H](C)CO)C2=O`, the AC50 was 11200 nM. Still for that read-out and setting: the figure for `CCCS(=O)(=O)N1CCCC(C(=O)N2CCN(c3ccccc3)CC2)C1` (stereo not given) is 41.3 nM; for `CSc1ccc(C#N)cc1NC(=O)c1ccc(Cl)cc1Cl` it is > 50000 nM (inactive).

As for `CC(=O)Oc1ccc(-c2ccc(C(=O)O)cc2)cc1`, the AC50 was > 50000 nM (inactive). On the same count and under the same terms, the value for `O=C(Nc1nnc(C(F)(F)F)s1)C1COc2ccccc2O1` (stereo not given) was 13700 nM; that for `O=C(c1cc2cc(Cl)ccc2oc1=O)N1CCOCC1` was 67.8 nM. Consider `CCOC(=O)c1cnc(-n2nc(C)cc2C)nc1N(C)C`, for which the AC50 was 67.6 nM.

On to `CSc1nc(C)cc(OCC(=O)N2CCOCC2)n1`, for which the AC50 was 113 nM. `O=C(NCc1ccccn1)c1ccc(CS(=O)(=O)Cc2ccc(Cl)cc2)o1`: the AC50 was 20500 nM. `CCCCCCCCOC(=O)C(NC(=O)CCC(=O)Nc1ccc(S(N)(=O)=O)cc1)C(O)c1ccccc1` (stereo not given): the AC50 is > 50000 nM (inactive). On the same count and under the same terms, the figure for `O=C(Nc1nnc(-c2ccc3c(c2)OCCO3)o1)C1CCCCC1` is less than 23.5 nM.

For `CC(C)COC(=O)CNc1n[nH]c(=S)[nH]c1=O`, the AC50 is less than 23.5 nM. Turning to `Cc1cc(=O)[nH]c(CN2CCC(c3ccccc3)CC2)n1`, the AC50 is 296 nM. On to `O=C(NCCC(=O)N1CCCCC1)c1ccc(Br)cc1`, for which the AC50 was 25000 nM.

As to `CCOc1ccc(CCNC(=O)C2CCN(c3ccc(N4CCOCC4)nn3)CC2)cc1OCC`, the concentration at half-maximal activity (AC50) is 44.5 nM. As for `Cc1ccc2onc(CC(=O)O)c2c1`, the AC50 was 8360 nM. Consider `CC(C)C(NC(=O)c1ccc(S(=O)(=O)N2CCOCC2)cc1)c1nc2ccccc2[nH]1` (stereo not given), for which the AC50 was 15300 nM.

Consider `Cc1ccc(N2C(=O)C(CN(C)C)C2c2ccccc2)cc1` (stereo not given), for which the AC50 is 417 nM.

`Cc1cccc(NC(=O)c2c(O)c3ccccc3n(C)c2=O)c1`: the AC50 was > 50000 nM (inactive). For the molecule `O=C(CNC(=O)c1cccc(S(=O)(=O)N2CCc3ccccc32)c1)Nc1ccc(F)c(F)c1F`, the AC50 is 516 nM. Take `CCn1cc(C(=O)NC2CCCCC2C)c(=O)c2ccc(C)nc21` (stereo not given): the concentration at half-maximal activity (AC50) was 1080 nM. The same measure, in the same setting: the value for `Cn1c(C(=O)NC2CCCCC2)cc2c(=O)n(C)c3ccccc3c21` was 27.3 nM. For `O=[N+]([O-])c1ccc(N(CCO)CCO)c2c1no[n+]2[O-]`, the AC50 is 1200 nM. On to `COc1ccc(Cl)cc1S(=O)(=O)NC(C)C(=O)NCCCn1ccnc1` (stereo not given), for which the AC50 was 180 nM. As to `COc1ccc(CNc2nnnn2C)cc1`, the AC50 is 3510 nM. The same measure, in the same setting: the figure for `CCn1nnnc1NCc1ccc(SC)cc1` is 188 nM. With `COc1ccc(CNC(=O)c2cc(-n3cnnc3)ccc2Cl)cc1`, the AC50 is 4230 nM.

Consider `O=C(NCc1ccccn1)C(C(=O)c1ccc(F)cc1)n1ccccc1=O` (stereo not given), for which the AC50 was 49.3 nM. Consider `CCC(=O)N(CC)c1nc(-c2cc(OC)ccc2OC)cs1`, for which the concentration at half-maximal activity (AC50) is 162 nM.
